These results are taken from US9820951B2, “Pulmonary disease treatment and diagnosis based on Arhgef1” (NATIONAL JEWISH HEALTH, A NON-PROFIT ORGANIZATION, priority 2011, dated 2017).

The structures appear in SMILES notation.

The test system of assay [1] is MMP9. Nature of the assay: MMP9 activity by zymography in conditioned media of human peripheral blood monocytes cultured on fibronectin. Type of assay: cell-based. The procedure: (§1) FIG. 5. TP-induced MMP9 production is only partially dependent on COX activity. A) PEMs were cultured on fibronectin for 24 hours with 5% FCS, washed then treated with different concentration of aspirin or 1.6 μM PTXA2 at for an additional 24 hours without FCS. MMP9 activity was determined by zymography from supernatants of wild type (open) or Arhgef1−/− (filled) macrophages. Activity was normalized to activity generated from cells cultured on fibronectin without treatment. B) MMP9 activity in conditioned media from peripheral blood monocytes cultured as described in panel A. Data represents mean±SE (n=3 independent donors).
Tissue-culture 96-well plates (Costar high binding catalogue number 3590) were coated with 10 μg/ml of murine fibronectin (Molecular Innovations, Nori, Minn.; catalogue number MFBN) or human fibronectin (Molecular Innovations; catalogue number HFBN) in DPBS without Ca^2+ or Mg^2+ (Mediatech, Inc., Manassas, Va.) for 2 h at room temperature. […] PGE2 and TXB2 were measured in conditioned medium by ELISA according to the manufacturer's instructions (ElisaTech, Aurora, Colo.). […]
Peripheral blood monocytes were isolated from whole blood of healthy volunteers using protocols approved by the National Jewish Health Human Subjects Institutional Review Board. […] This procedure consistently yields monocyte purities of >80% as assessed by flow cytometry. […]

The subject of assay [2] is Mmp9. Nature of the assay: MMP9 activity by gelatin zymography in conditioned media of mouse peritoneal macrophages cultured on fibronectin. The note with it: for maximal inhibition of fibronectin-induced MMP9 production/activity: both wild type and Arhgef1-deficient macrophages, aspirin up to 20 mM, L-161,982, PTA2 1.56 or 6.25 μM, L-655,240 28 μM. Format: cell-based. Here is the method:
as §1
FIG. 6. The antioxidant mimetic MnTE-2PyP reduces MMP9 activity in macrophages. PEMs were cultured on fibronectin for 24 hours with 5% FCS, washed then treated with MnTE-2PyP at the indicated concentrations for an additional 24 hours without FCS. MMP9 activity was determined by zymography from supernatants of wild type (open) or Arhgef1−/− (filled) macrophages. Activity was normalized to activity generated from cells cultured on fibronectin without treatment.
FIG. 11. Cyclooxygenase activity but not EP4 receptor signaling is required for MMP9 production by murine macrophages cultured on fibronectin. A, representative MMP9 gelatin zymograms of conditioned media from peritoneal macrophages cultured on either plastic (ctl) or FN and treated with increasing concentrations of aspirin (1.25, 5.0, and 20 mM, respectively). Wild type (+/+) and Arhgef1^−/− (−/−) samples from separate zymograms are shown. Molecular weight standards and respective enzymatic activities of MMP9 and MMP2 are shown. B, quantitation of MMP9 activity as determined by densitometric analysis of zymograms in A. MMP 9 activity is shown in arbitrary units and represents n=6 for both wild type (open bars) and Arhgef1^−/− (black bars) samples. The results are compiled from two independent experiments. The data represent the means±S.E. *, p<0.05 Student's two-tailed t test compared with conditioned media from cells cultured on plastic. #, p<0.05 Student's two-tailed test comparing conditioned media from wild type cells to Arhgef1^−/− cells cultured under identical conditions. $, p<0.05 Student's two-tailed t test compared with conditioned media from cells cultured on fibronectin. C, quantitation of MMP9 activity in conditioned media from macrophages cultured on fibronectin in the presence of the EP4 antagonist L161,982 (10 μM). MMP9 activity was normalized to fibronectin response for each genotype. The results are compiled from two independent experiments with wild type (open bars, n=5) and Arhgef1^−/− (black bars, n=5) samples. The data represent the means±S.E. *, p<0.05 Student's two-tailed t test compared with conditioned media from cells cultured on plastic. #, p<0.05 Student's two-tailed t test compared with conditioned media from cells cultured on fibronectin.
FIG. 12. Thromboxane receptor signaling is necessary for fibronectin-induced MMP9 production by macrophages and is attenuated by Arhgef1. A, representative gelatin zymograms of conditioned media from macrophages cultured on plastic (ctl) or FN and treated with 1.56 or 6.25 μM of the thromboxane receptor antagonist PTA2. Wild type (+/+) and Arhgef1^−/− (−/−) samples from separate zymograms are shown. B, quantitation of MMP9 activity as determined by densitometric analysis of zymograms in A. The results are representative of two independent experiments. C, representative zymograms from conditioned media from macrophages cultured on plastic or fibronectin and treated with 28 μM of the thromboxane receptor antagonist L-655,240. D, quantitation of MMP9 activity as determined by densitometric analysis of zymograms in C. The results are compiled from two independent experiments with n=4 for both wild type (open bars) and Arhgef1^−/− (black bars) samples. […]

For the molecule `CCCCC[C@@H](O)/C=C/[C@H]1C[C@H]2C[C@@H]([C@@H]1C/C=C\CCCC(=O)O)C2(C)C` (relative stereo) [PTXA2, (18-(1alpha,2beta(Z),3alpha(1E,3S*),5alpha))-7-(3-(3-Hydroxy-1-octenyl)-6,6-dimethylbicyclo(3.1.1)hept-2-yl)-5-heptenoic acid], the “fibronectin-mediated MMP9 activity (effect in words)” value is on record as “virtually ablated fibronectin-mediated MMP9 activity” in assay [1] (human peripheral blood monocytes, 1.6 μM PTXA2); “virtually ablated fibronectin-mediated MMP9 activity” in assay [2] (mouse macrophages, wild type and Arhgef1−/−, 1.6 μM PTXA2, 28 μM L-655,240). Further, the “maximal inhibition of fibronectin-induced MMP9 production/activity” value in assay [2] is reported as 80-85%.
Consider `CC(=O)Oc1ccccc1C(=O)O` [aspirin], for which the “reduction of MMP9 activity” value in assay [1] (human monocytes on fibronectin, highest aspirin concentration 5 mM, 24 h) was 40-50%; in assay [2] (mouse peritoneal macrophages on fibronectin, highest aspirin concentration 5 mM, 24 h), 40-50%. Moreover, the “maximal inhibition of fibronectin-induced MMP9 production/activity” value in assay [2] is on record as 70-75%.
